Reference: publication PMC5729604, “Dual inhibitors of hepatitis C virus and hepatocellular carcinoma: design, synthesis and docking studies” (Future Science OA, 2017)
“Also recorded” adds a separate entry of the source.

Columns and labels:
[1] = test system: human peripheral blood mononuclear cells (PBMCs); type: cell-based; conditions: 72 h
Description: The safe compounds on RBCs (5a-g, 5i-l, 5p-r, 5v-w, 6b-g) were subjected to the in vitro cytotoxicity assay on human peripheral blood mononuclear cells (PBMCs). Viability of cells was measured using neutral red uptake assay as described by Borenfreund and Puerner to determine the concentrations of each compound that were not cytotoxic. The results were interpreted to calculate both the lethal concentration that kills 50% of cells (LD50) and the maximum safe concentration that causes 100% viability (LD0) of each compound using GraphPad InStat 3.0 software (Figure 6 & Supplementary Table 3).
The PBMCs were isolated by density gradient centrifugation technique as described by Boyum. Blood samples were freshly collected into heparinized or ethylenediaminetetraacetic acid sterile tubes. Blood was diluted using equal volume of RPMI-1640 medium containing 25 mM HEPES and then layered over equal volume of Ficoll-Pague™ Plus (Fisher BioReagents™ Lymphocyte Separation Medium-LSM, PA, USA) and centrifuged (2000 r.p.m. for 30 min at acceleration and deceleration speeds zero & zero) at room temperature. The buffy mononuclear cell layer was collected using sterile Pasteur pipette into 50 ml sterile Falcon tube and washed twice in phosphate-buffered saline (Sigma-Aldrich) using centrifugation (1650 r.p.m. for 5 min). The isolated PBMCs viability was determined by hemocytometer count using the trypan blue exclusion method. The PBMCs were resuspended at 1 × 10^6 cells/ml in RPMI-1640 medium containing 25 mM HEPES supplemented with 10% heat-inactivated FBS. The appropriate number of cells was chosen to be 1 × 10^5 cells/well (100 μl of the prepared suspension).
A 2 mg/ml stock solution of each compound was prepared in DMF and filtered using a 0.2 μM syringe filter. The desired concentrations (20, 10, 5, 2.5 and 1.25 μg/ml) were prepared using serial dilution in a 96-well plate. Compound wells were prepared by adding 100 μl of the previously prepared concentrations to a suspension of 1 × 10^5 PBMCs in 100 μl culture media. Parallel concentrations of the solvent were prepared to be used as controls. Control wells were prepared by adding 100 μl culture media to a suspension of 1 × 10^5 PBMCs in 100 μl culture media. Blank wells contained 200 μl of culture media only (without cells or compound solution). Each set of samples was pipetted in duplicate. The plate was then gently shaken then incubated at 37°C, 5% CO2 for 72 h.
After incubation, neutral red assay was performed as described previously, and surviving cell fraction was calculated according to the previously mentioned equation. Also, the results were interpreted to calculate both the lethal concentration that kills 50% of cells (LD50) and the maximum safe concentration that cause 100% viability (LD0) of each compound using GraphPad InStat 3.0 software.

[2] = test system: HepG2 cells infected with hepatitis C virus; assay: In vitro anti-HCV screening, qualitative RT-PCR of viral RNA; type: cell-based, HCV genotype-4; conditions: for Result (anti-HCV screening): at the used dose (below LD0 on HepG2 and PBMCs), 72 h, Positive = disappearance of viral RNA-amplified product (174 bp); for in vitro anti-HCV activity, in words: HCV-infected HepG2 cells, RT-PCR
Excerpt: The safe compounds on RBCs (5a-g, 5i-l, 5p-r, 5v-w, 6b-g) were screened for their in vitro anti-HCV activity using the HCC HepG2 cell line infected with the HCV. Monitoring of the HCV viremia pre- and post-antiviral therapy through the detection of viral RNA using qualitative reverse transcription-PCR (RT-PCR) was adopted in the present investigation. This technique was reported to be the most frequently used, reliable and sensitive technique. Inhibition of viral replication was detected by amplification of viral RNA segments by the RT-PCR technique both in the cultivated infected cells alone (as a positive control) and at the specified dose for each test compound at optimal temperature. The test compound was considered to be active when it can inhibit the viral replication inside the HCV-infected HepG2 cells, as evidenced by the disappearance of the viral RNA-amplified products detected by the RT-PCR (compared with positive control).
The used concentration of each compound was chosen to be lower than the LD0 on HepG2 cells. Therefore, 100% viability of HepG2 cells was maintained, to make sure that any inhibitory effect was due to anti-HCV activity rather than cytotoxic activity on HepG2 cells. Moreover, the used concentrations were also chosen to be lower than the LD0 on PBMCs. Consequently, these doses could be used for inhibition of HCV in normal cells infected with the virus.
HepG2 cells were washed twice in RPMI-1640 medium supplemented with 200 μM L-glutamine and […] HEPES buffer. The cells were suspended at 12 × 10^4 cells/ml in RPMI culture medium (RPMI supplemented medium and 10% FBS). The appropriate number of cells to be used was chosen to be 12 × 10^3 cells/well (100 μl of the prepared suspension), and the cells were left to adhere on the polystyrene […] plates in an incubator at 37°C, 5% CO2 and 95% humidity for 24 h. The cells were washed once using RPMI supplemented medium, then infected with 2% HCV-infected serum (the used serum was a pole of ten patients infected with HCV genotype-4 with viral loads: 3.2–9 million IU/ml, G4 HCV RNA) in RPMI culture medium containing 8% FBS. The used dose of each compound was chosen so as to maintain 100% viability of the HepG2 cell line (the dose was lower than the LD0 of each compound on HepG2 cells as calculated from the in vitro anticancer screening). It was reported that, cultured HepG2 cells lost their biotransformation activity due to decrease in cytochrome (CYP) transcription. This waived its effect on the compounds stability during the test. Negative control is HepG2 cells with culture medium without addition of HCV infected serum or addition of tested compounds. Positive control is HepG2 cells with culture medium and infected HCV serum but without addition of tested compounds. After addition of the compounds, the plates were incubated at 37°C, 5% CO2 and 95% humidity for 72 h, followed by RNA extraction. The RNA strand was detected by RT-PCR using HCV-specific primers to the […] region of the virus.
RNA was extracted from HepG2 cells using the method described by El-Awady et al.. Culture cells were mixed with 200 μl of 4 mol/l guanidinium isothiocyanate (Fischer Bioreagents) containing 25 mmol/l sodium citrate (MP Biomedicals, CA, USA), 0.5% sarkosyl (Fischer Bioreagents), 0.1 mol/l β-mercaptoethanol (MP Biomedicals), and 100 μl sodium acetate (Merck). The lysed cells were mixed with an equal volume of phenol, chloroform and isoamyl alcohol (25:24:1, pH 4; Fischer Bioreagents). After vortexing, the mixture was centrifuged (14,000 r.p.m. for 10 min) at 4°C. The aqueous layer was collected and mixed with an equal volume of isopropanol (Acros Organics, Geel, Belgium). After incubation at -20°C overnight, RNA was precipitated by centrifugation (14,000 r.p.m. for 30 min) at 4°C, and the precipitated RNA was washed twice with 70% ethanol. […]

| SMILES | (LD0) PBMCs [1] | LD0 [1] | LD50 [1] | Result (anti-HCV screening) [2] | LD50 (PBMCs) [1] | in vitro anti-HCV activity, in words [2] |
| --- | --- | --- | --- | --- | --- | --- |
| COc1ccc(-c2nn(-c3ccccc3)cc2C=C2SC(=NN=C(C)c3cc4ccccc4o3)N(c3ccc(OC)cc3)C2=O)cc1 [Compound 5i, 2-[1-(Benzofuran-2-yl)ethylidenehydrazono]-5-{[3-(4-methoxyphenyl)-1-phenyl-1H-pyrazol-4-yl]methylene}-3-(4-methoxyphenyl)thiazolidin-4-one] | 7.60 µg/mL | 7.60 µg/mL | 25.35 µg/mL | Negative | – | – |
| CC(=NN=C1SC(=Cc2cn(-c3ccccc3)nc2-c2ccccc2)C(=O)N1C1CCCCC1)c1cc2ccccc2o1 [Compound 5j, 2-[1-(Benzofuran-2-yl)ethylidenehydrazono]-5-[(1,3-Diphenyl-1H-pyrazol-4-yl)methylene]-3-cyclohexylthiazolidin-4-one] | 9.90 µg/mL | 9.90 µg/mL | 134.00 µg/mL | Negative | 134.00 µg/mL | – |
| CC(=NN=C1SC(=Cc2cn(-c3ccccc3)nc2-c2ccc(Cl)cc2)C(=O)N1C1CCCCC1)c1cc2ccccc2o1 [Compound 5k, 2-[1-(Benzofuran-2-yl)ethylidenehydrazono]-5-{[3-(4-chlorophenyl)-1-phenyl-1H-pyrazol-4-yl]methylene}-3-cyclohexylthiazolidin-4-one] | 33.29 µg/mL | 33.29 µg/mL | 319.64 µg/mL | Negative | – | – |
| COc1ccc(-c2nn(-c3ccccc3)cc2C=C2SC(=NN=C(C)c3cc4ccccc4o3)N(C3CCCCC3)C2=O)cc1 [Compound 5l, 2-[1-(Benzofuran-2-yl)ethylidenehydrazono]-5-{[3-(4-methoxyphenyl)-1-phenyl-1H-pyrazol-4-yl]methylene}-3-cyclohexylthiazolidin-4-one] | 8.33 µg/mL | 8.33 µg/mL | 46.89 µg/mL | Positive | 46.89 µg/mL | showed in vitro anti-HCV activity; also recorded: exhibited in vitro anti-HCV activity |
| CC(=NN=C1SC(=Cc2cn(-c3ccccc3)nc2-c2ccccc2)C(=O)N1c1ccc(Cl)cc1)c1nc2ccccc2[nH]1 [Compound 5p, 2-[1-(1H-Benzimidazole-2-yl)ethylidenehydrazono]-5-[(1,3-Diphenyl-1H-pyrazol-4-yl)methylene]-3-(4-chlorophenyl)thiazolidin-4-one] | 12.67 µg/mL | 12.67 µg/mL | 120.46 µg/mL | Positive | 120.46 µg/mL | showed in vitro anti-HCV activity; also recorded: exhibited in vitro anti-HCV activity |
| CC(=NN=C1SC(=Cc2cn(-c3ccccc3)nc2-c2ccc(Cl)cc2)C(=O)N1c1ccc(Cl)cc1)c1nc2ccccc2[nH]1 [Compound 5q, 2-[1-(1H-Benzimidazole-2-yl)ethylidenehydrazono]-5-{[3-(4-chlorophenyl)-1-phenyl-1H-pyrazol-4-yl]methylene}-3-(4-chlorophenyl)thiazolidin-4-one] | 190.45 µg/mL | 190.45 µg/mL | 1246.96 µg/mL | Negative | 1246.96 µg/mL | – |
| COc1ccc(-c2nn(-c3ccccc3)cc2C=C2SC(=NN=C(C)c3nc4ccccc4[nH]3)N(c3ccc(Cl)cc3)C2=O)cc1 [Compound 5r, 2-[1-(1H-Benzimidazole-2-yl)ethylidenehydrazono]-5-{[3-(4-methoxyphenyl)-1-phenyl-1H-pyrazol-4-yl]methylene}-3-(4-chlorophenyl)thiazolidin-4-one] | 7.33 µg/mL | 7.33 µg/mL | 44.00 µg/mL | Negative | 44.00 µg/mL | – |
| CC(=NN=C1SC(=Cc2cn(-c3ccccc3)nc2-c2ccccc2)C(=O)N1C1CCCCC1)c1nc2ccccc2[nH]1 [Compound 5v, 2-[1-(1H-Benzimidazole-2-yl)ethylidenehydrazono]-5-[(1,3-Diphenyl-1H-pyrazol-4-yl)methylene]-3-cyclohexylthiazolidin-4-one] | 13.85 µg/mL | 13.85 µg/mL | 43.40 µg/mL | Positive | – | showed in vitro anti-HCV activity; also recorded: exhibited in vitro anti-HCV activity |
| CC(=NN=C1SC(=Cc2cn(-c3ccccc3)nc2-c2ccc(Cl)cc2)C(=O)N1C1CCCCC1)c1nc2ccccc2[nH]1 [Compound 5w, 2-[1-(1H-Benzimidazole-2-yl)ethylidenehydrazono]-5-{[3-(4-chlorophenyl)-1-phenyl-1H-pyrazol-4-yl]methylene}-3-cyclohexylthiazolidin-4-one] | 16.03 µg/mL | 16.03 µg/mL | 36.28 µg/mL | Negative | – | – |
